# Values quoted from earlier work as cited in patent US20210284969A1, “METHODS AND SYSTEMS FOR TRANSPORTATION AND CULTURE OF BUOYANT TISSUE” (eXo Cell, LLC, priority 2020, published 2021).
# Tests used:
# [1] = test system: obese, diabetic yellow KK mice
# brown adipose tissue = settings: in humans
smiles,measurement,setting,value
C[C@H](Cc1ccc2c(c1)OC(C(=O)[O-])(C(=O)[O-])O2)NC[C@H](O)c1cccc(Cl)c1.[Na+].[Na+] [CL-316243],effect on obesity,[1],ameliorated obesity
O=S(=O)(Nc1ccc(CCNC[C@H](O)c2cccnc2)cc1)c1ccc(-c2nc(-c3ccc(C(F)(F)F)cc3)cs2)cc1 [L-796568],anti-obesity effects,obese human males,did not generate notable anti-obesity effects
same,energy expenditure,obese human males,improved energy expenditure
Nc1nc(CC(=O)Nc2ccc(CCNC[C@H](O)c3ccccc3)cc2)cs1 [migrabegron],brown adipose tissue activation,brown adipose tissue,activate brown adipose tissue
